Read-outs that look alike come from different tables or passages of the source.

We go through 18 compounds from US20160378909A1, “PROCESS FOR IDENTIFYING CULTURE CONDITIONS FOR A CELL OR ORGANISM” (GLAXOSMITHKLINE BIOLOGICALS SA, priority 2013, published 2016).

The assay concerns Bordetella pertussis. In words: microbe, parasite or virus in culture. Type of assay: cell-based. How it is done: Cells were harvested by centrifugation, washed twice with NaCl 0.9% (w/v), and resuspended in fresh medium (de novo minimal CDM; see composition in Table 1) at a theoretical OD650 nm of 0.5, as calculated from the OD650 nm of the culture before harvest. 20 μl of this cell suspension were used to inoculate each well of a 96-well microtiter plate filled with 180 μl of de novo minimal CDM. Only the inner wells of the plate were used for cultures, in order to minimize evaporation, and two controls were included, in which the supplement solution was replaced with water.
The plate was then incubated for 7 days at 35° C. in a Biotek Synergy H1 reader with constant shaking, and growth was automatically monitored every 10 minutes as OD650 nm.
The relative growth yield and growth rate for each supplement was then averaged over the three independent repeats, and the standard deviation was calculated.

[1] abbreviates: Bordetella pertussis, 168 h, read-out: Relative yield Average, 2 mM in medium, max OD650 nm relative to water controls.
The mark [2] stands for this setting: Bordetella pertussis, read-out: Relative growth rate Average, 2 mM in medium, first generation, relative to water controls.
[3] abbreviates: Bordetella pertussis, read-out: Relative growth rate Average, 0.2 mg/L in medium, first generation, relative to water controls.
Where [4] appears, read: Bordetella pertussis, 168 h, read-out: Relative yield Average, 0.1 mg/L in medium, max OD650 nm relative to water controls.
[5] abbreviates: Bordetella pertussis, 168 h, read-out: Relative yield Average, 1 mg/L in medium, max OD650 nm relative to water controls.
[6] abbreviates: Bordetella pertussis, read-out: Relative growth rate Average, 0.1 mg/L in medium, first generation, relative to water controls.
Setting [7] is: Bordetella pertussis, read-out: Relative growth rate Average, 1 mg/L in medium, first generation, relative to water controls.
The mark [8] stands for this setting: 10 mg/L in medium, first generation, relative to water controls.

On to `N[C@@H](Cc1c[nH]c2ccccc12)C(=O)O` [L-Tryptophane], for which the activity at 518 µM is over 105% (Bordetella pertussis, 168 h, read-out: Relative yield Average, 0.518 mM in medium, max OD650 nm relative to water controls) and 95 to 105% (Bordetella pertussis, read-out: Relative growth rate Average, 0.518 mM in medium, first generation, relative to water controls). For the same compound, the activity at 5180 µM (Bordetella pertussis, 168 h, read-out: Relative yield Average, 5.18 mM in medium, max OD650 nm relative to water controls) lay in the range of 95 to 105%.
On to `C[C@H](N)C(=O)O` [L-Alanine], for which the activity at 2000 µM runs as follows: under setting [1], 95 to 105%; under setting [2], over 105%.
`O=C(O)CCCC[C@@H]1SC[C@@H]2NC(=O)N[C@@H]21` [Biotin]: the activity at 0.02 µg/mL (Bordetella pertussis, read-out: Relative growth rate Average, 0.02 mg/L in medium, first generation, relative to water controls) was over 105%. The activity at 0.2 µg/mL under setting [3] was in the range of 95 to 105%.
`OB(O)O` [Supplement H3BO3, H3BO3]: for the setting “2.36 mg/L in medium, first generation, relative to water controls”, the “Relative growth rate Average” value was 93.25%. Further, for the setting “2.36 mg/L in medium, max OD650 nm relative to water controls”, the “Relative yield Average” value is listed as 96.86%.
`Cl.NCCCC[C@H](N)C(=O)O` [L-Lysine HCl]: the activity at 2000 µM runs as follows: under setting [1], over 105%; under setting [2], under 95%.
On to `O=c1cc[nH]c(=O)[nH]1` [Uracil], for which the activity at 0.1 µg/mL is, setting by setting: under setting [4], 95 to 105%; under setting [6], 95 to 105%. Further, the activity at 1 µg/mL came out at 101% under setting [5] and 94.8% under setting [7].
For `Cc1ncc(CO)c(CO)c1O` [Pyridoxine], the activity at 0.2 µg/mL lay in the range of 95 to 105% (Bordetella pertussis, 168 h, read-out: Relative yield Average, 0.2 mg/L in medium, max OD650 nm relative to water controls) and 95 to 105% under setting [3]. Further, the activity at 2 µg/mL reads like this: (Bordetella pertussis, 168 h, read-out: Relative yield Average, 2 mg/L in medium, max OD650 nm relative to water controls) 95 to 105%; (Bordetella pertussis, read-out: Relative growth rate Average, 2 mg/L in medium, first generation, relative to water controls) 95 to 105%.
Regarding `O.O.[Ca+2].[Cl-].[Cl-]` [CaCl2•2H2O], the “Relative growth rate Average” value reads like this: (0.3 mM in medium, first generation, relative to water controls) 107.49%; (3 mM in medium, first generation, relative to water controls) 92.03%. Besides, the “Relative yield Average” value is, setting by setting: (0.3 mM in medium, max OD650 nm relative to water controls) 104.03%; (3 mM in medium, max OD650 nm relative to water controls) 107.34%.
For the compound `CC(C)[C@H](N)C(=O)O` [L-Valine], the activity at 2000 µM reads like this: under setting [1], 95 to 105%; under setting [2], under 95%.
With `N[C@@H](Cc1c[nH]cn1)C(=O)O` [L-Histidine], the activity at 2000 µM by setting is: under setting [1], 95 to 105%; under setting [2], over 105%. For the same compound, the activity at 20000 µM is under 95% (Bordetella pertussis, 168 h, read-out: Relative yield Average, 20 mM in medium, max OD650 nm relative to water controls) and over 105% (Bordetella pertussis, read-out: Relative growth rate Average, 20 mM in medium, first generation, relative to water controls).
Take `Nc1nc2nc[nH]c2c(=O)[nH]1` [Guanine]: the activity at 0.1 µg/mL fell in the range of 95 to 105% under setting [4] and 95 to 105% under setting [6]. For the same compound, the activity at 1 µg/mL was 95 to 105% under setting [5] and 95 to 105% under setting [7].
Take `NC(=O)c1ccc[n+]([C@@H]2O[C@H](COP(=O)([O-])OP(=O)(O)OC[C@H]3O[C@@H](n4cnc5c(N)ncnc54)[C@H](O)[C@@H]3O)[C@@H](O)[C@H]2O)c1` [NAD]: the “Relative growth rate Average” value under setting [8] is recorded as 100.14% and the “Relative growth rate Average” value (100 mg/L in medium, first generation, relative to water controls) turned out to be 97.38%. For the same compound, the “Relative yield Average” value was determined as 100.15% (10 mg/L in medium, max OD650 nm relative to water controls) and 104.61% (100 mg/L in medium, max OD650 nm relative to water controls).
Regarding `Cc1cc2nc3c(=O)[nH]c(=O)nc-3n(C[C@H](O)[C@H](O)[C@H](O)CO)c2cc1C` [Riboflavin], the activity at 0.3 µg/mL is, setting by setting: (Bordetella pertussis, 168 h, read-out: Relative yield Average, 0.3 mg/L in medium, max OD650 nm relative to water controls) 95 to 105%; (Bordetella pertussis, read-out: Relative growth rate Average, 0.3 mg/L in medium, first generation, relative to water controls) over 105%. Besides, the activity at 3 µg/mL by setting is: (Bordetella pertussis, 168 h, read-out: Relative yield Average, 3 mg/L in medium, max OD650 nm relative to water controls) 95 to 105%; (Bordetella pertussis, read-out: Relative growth rate Average, 3 mg/L in medium, first generation, relative to water controls) 95 to 105%.
For `O[C@H]1[C@H](O)[C@@H](O)[C@H](O)[C@@H](O)[C@H]1O` [Inositol], the activity at 2.8 µg/mL reads like this: (Bordetella pertussis, 168 h, read-out: Relative yield Average, 2.8 mg/L in medium, max OD650 nm relative to water controls) 95 to 105%; (Bordetella pertussis, read-out: Relative growth rate Average, 2.8 mg/L in medium, first generation, relative to water controls) 95 to 105%. In addition, the activity at 28 µg/mL fell in the range of 95 to 105% (Bordetella pertussis, 168 h, read-out: Relative yield Average, 28 mg/L in medium, max OD650 nm relative to water controls) and 95 to 105% (Bordetella pertussis, read-out: Relative growth rate Average, 28 mg/L in medium, first generation, relative to water controls).
With `O=C(O)CC(O)(CC(=O)O)C(=O)O` [Citric acid monohydrate], the activity at 2000 µM under setting [1] is under 95%.
In the case of `O=P([O-])([O-])O.[Na+].[Na+]` [Na2HPO4], the “Relative growth rate Average” value reads like this: (1 mM in medium, first generation, relative to water controls) 99.98%; (10 mM in medium, first generation, relative to water controls) 101.26%.
As for `N[C@@H](CC(=O)O)C(=O)O` [L-Aspartate], the “Relative growth rate Average” value reads like this: (0.225 mM in medium, first generation, relative to water controls) 96.87%; (2.25 mM in medium, first generation, relative to water controls) 72.32%. Moreover, the “Relative yield Average” value is, setting by setting: (0.225 mM in medium, max OD650 nm relative to water controls) 106.30%; (2.25 mM in medium, max OD650 nm relative to water controls) 99.74%.
`[Cl-].[Cl-].[Zn+2]` [ZnCl2]: the “Relative growth rate Average” value under setting [8] was determined as 103.27%.
